Test results taken from US6770660B2, “Method for inhibiting platelet aggregation” (Artery LLC, priority 2002, dated 2004).
Counter-ions that a name gives are not always drawn. Like-named read-outs stand apart in the source and are kept apart here.

Tests used:
platelet aggregation [1] = settings: patients, 15 through 60 minutes, 20 μM adenosine diphosphate, monohydrochloride
Method: (§1) Patients were treated with a 20 μg/kg bolus of tirofiban hydrochloride followed by a 0.15 μg/kg/min infusion for 18-24 hours or a 25 μg/kg bolus followed by the same infusion. Enrollment of subjects in the panel with the 20 μg/kg bolus (n=15/panel) was completed and the clinical effects and pharmacodynamic properties were evaluated before subjects were enrolled in the panel with the 25 μg/kg bolus. Patients were treated with aspirin (325 mg before the procedure and daily) and unfractionated heparin (target activated clotting time 250 seconds). Clopidogrel (300 mg and then 75 mg daily)(commercially available as PLAVIX®) was administered at least 45 minutes after the start of tirofiban hydrochloride. All other medications were administered at the discretion of the attending cardiologist. Sheath removal was performed when the activated clotting time was less than 175 seconds unless a closure device was used.

[2] = for major bleeding episodes: patients
Method: as §1, with “used. […] The occurrence of 3 major bleeding episodes (as defined by the American College of Cardiology Task force (Cannon et al. J. Am. Coll. Cardiol. (2001) vol. 38 pp. 2114-30) in each panel was a pre-specified criteria for termination of the study.” for “used.”

[3] = system: capacity of platelets to bind fibrinogen; settings: 25 μg/kg (high) bolus compared with 20 μg/kg bolus; 1 μM adenosine diphosphate; flow cytometry
Method: Blood was obtained after 5 minutes for analysis by flow cytometry. […] Blood for flow cytometry was anticoagulated with corn trypsin inhibitor, a specific inhibitor of coagulation factor XIIa without effect on other coagulation factors (Schneider et al., Circulation (1997) vol. 96 pp. 2877-83). […] For flow cytometry, samples were processed and platelets were fixed at each site. […] Light transmission aggregometry and rapid platelet function analyzer were performed with […] -chloromethyl ketone as the anticoagulant and flow cytometry was performed with blood anticoagulated with corn trypsin inhibitor.

platelet aggregation [4] = settings: patients; 10 μg/kg bolus followed by 0.15 μg/kg/min infusion; 15 to 60 minutes after bolus; monohydrochloride; cited from earlier work

CCCCS(=O)(=O)N[C@@H](Cc1ccc(OCCCCC2CCNCC2)cc1)C(=O)O [tirofiban hydrochloride, N-(butylsulfonyl)-O-[4-(4-piperidinyl)butyl]-L-tyrosine monohydrochloride]
average extent of inhibition of platelet aggregation / % Inhibition of platelet aggregation 15-60 minutes after bolus injection (platelet aggregation [1]; 20 μg/kg bolus followed by 0.15 μg/kg/min infusion): 84-89% | average extent of inhibition of platelet aggregation / % Inhibition of platelet aggregation 15-60 minutes after bolus injection (platelet aggregation [1]; 25 μg/kg bolus followed by 0.15 μg/kg/min infusion, listed as tirofiban): 92-95% | average extent of inhibition of platelet aggregation / % Inhibition of platelet aggregation 15-60 minutes after bolus injection (platelet aggregation [1]; 25 μg/kg bolus followed by 0.15 μg/kg/min infusion): greater than 90% | undesirable side effects ([2]; about 25 μg/kg bolus compared with conventional bolus): absence of increased undesirable side effects | major bleeding episodes ([2]; 20 μg/kg bolus followed by 0.15 μg/kg/min infusion for 18-24 hours): No major bleeding episode occurred | major bleeding episodes ([2]; 25 μg/kg bolus followed by 0.15 μg/kg/min infusion for 18-24 hours): No major bleeding episode occurred | extent of inhibition of the capacity to bind fibrinogen [3]: greater | average inhibition of maximal aggregation / % Inhibition of platelet aggregation 15-60 minutes after bolus injection (platelet aggregation [4]): 61-66%
